Data reported in US20130267571A1, “TERPENOID ANALOGUES AND USES THEREOF FOR TREATING NEUROLOGICAL CONDITIONS” (NeuroQuest Inc., priority 2010, published 2013).

How the values were obtained:
[1] = tested on: voltage-gated Na+ channels; assay: Sodium (Na+) channel analysis in rat DRG neurons using whole cell patch-clamp; assay type: cell-based; details: Na+ currents in isolated rat DRG neurons, 3 min in presence of drug, read-out: IC50 range
Protocol: Isolated DRG neurons were suspended in primary neuron basal media and placed on glass coverslips for incubation in humidified atmosphere of 5% CO2 at 37° C. Coverslips carrying cells was transferred to the bath of an inverted microscope (Zeiss), continuously perfused with oxygenated artificial cerebro-spinal fluid (ACSF) containing (in mM) 124 NaCl, 2.5 KCl, 2 CaCl2, 1 MgSO4, 25 NaHCO3, 1 NaH2PO4, and 10 glucose, at a rate of 2-3 ml/min. Recording of whole-cell membrane currents were made at room temperature. Recording pipette (4-6 MS2) was filled with internal solution containing (in mM) 145 K-gluconate, 5 NaCl, 1 MgCl2, 0.2 EGTA, 10 HEPES, 2 Mg-ATP, 0.1 Na-GTP, and 10 phosphocreatine. To isolate Na^+ currents, DRG neurons were superfused with ACSF containing tetraethylammonium chloride (TEA) 5 mM, cesium chloride (CsCl) 100 μM and cadmium chloride (CdCl) 1 mM, to block potassium and calcium currents. NQ compounds were freshly dissolved in ASCF containing TEA, CsCl and CdCl, prior application via the bath.
For recording Na^+ currents, cells were held at −60 mV before applying a conditioning hyperpolarizing step (50 ms) to −90 mv to reactivate the voltage-gated Na^+ channels. The conditioning pulse was followed by depolarizing (150 ms) test pulses to 50 mV in 10 mV increments. Na^+ currents were recorded in absence, after 3 min in presence of the drugs and after a recovery time of 3 min.

[2] = tested on: zebrafish embryos; assay: Zebrafish response (anaesthesia) assay, touch response/swim behaviour; assay type: in vivo; details: Danio rerio, 1.5 h; complete anaesthesia (scale 1) in 50% of AB wild type embryos (54 hpf), 90 min at 28° C.
Excerpt: Briefly, the ZEA assay involves applying essential oils, fractions or individual compounds to developmentally staged zebrafish embryos followed by monitoring of embryonic touch response/swim behaviour and evaluation of the dose response relationship for each substance. Using a four point scale to describe the embryonic behaviours (Table 4), initial analysis focused on monitoring and recording these changes and evaluating the level of bioactivity. The effective concentration to generate complete anaesthesia in 50% of the embryos (EC50), were evaluated as follows:
Compounds are tested on developmentally staged AB “wild type” zebrafish embryos (54 hpf+/−2 hpf) at concentrations ranging between 10 and 400 μM.
Each compound is diluted in a 95% ethanol or DMSO carrier to create a working stock solution from which appropriate dilutions are made in standard embryo E3 media.
1000 μl of each concentration or appropriate carrier control are added to 10 wild type AB embryos in a single well of a 24 well plate, in duplicate.
The embryos are incubated for 90 min at 28° C. (optimal temperature for embryonic growth) in the diluted compound.
A four point scale (Table 4) is used to evaluate the touch response and swim behaviour for each embryo in all wells.
The effectiveness of the compound will be based on its ability to generate complete anaesthesia (scale: 1) in 50% of the embryos at a given concentration (EC50).
The EC50 values are calculated using GraphPad Prism® software to analyze the log (dose) response curves.

[3] = target: TRPV1 (Homo sapiens, UniProt Q8NER1); assay: TRPV1 assay, calcium imaging; assay type: cell-based
Protocol: Briefly, cells are seeded into poly-L-lysine-coated, glass-bottom, 24-well plates (1×10^5 cells/well) and incubated overnight under standard culture conditions to achieve the desired confluency. Culture media is removed and cells washed twice with HBS prior to incubation for 15 to 60 min at 37° C. with a labelling mixture comprised of Fura-2-AM and pluronic acid in HBS. Data collection occurs over an eight minute period and follows the same general sequence. Following loading, cells are stimulated by addition of 1 μM of capsaicin agonist for 2 min, after which a concentration series of the test sample (e.g., (0.5, 5, 10, 50 μg/ml) is added and imaging continued for an additional 5 min. Capsazepine (20 μM) serves as a known reference antagonist, while cells that are mock-treated or receive vehicle (e.g., DMSO) alone serve as negative controls. For imaging, plates are placed on the stage of an inverted epifluorescence microscope (e.g. Axiovert 200, Zeiss) equipped with a CCD digital camera (e.g., Axiocam MRm, Zeiss). For each well of the plate, a sequence of image pairs (excitation at 340 nm and 380 nm) are collected to capture intracellular calcium flux. Image sequences are analyzed in Image) (NIH) and average pixel intensities calculated for six representative cells in each test condition to achieve mean fluorescence.

TRPV1, sequence (Q8NER1 whole entry, species assumed): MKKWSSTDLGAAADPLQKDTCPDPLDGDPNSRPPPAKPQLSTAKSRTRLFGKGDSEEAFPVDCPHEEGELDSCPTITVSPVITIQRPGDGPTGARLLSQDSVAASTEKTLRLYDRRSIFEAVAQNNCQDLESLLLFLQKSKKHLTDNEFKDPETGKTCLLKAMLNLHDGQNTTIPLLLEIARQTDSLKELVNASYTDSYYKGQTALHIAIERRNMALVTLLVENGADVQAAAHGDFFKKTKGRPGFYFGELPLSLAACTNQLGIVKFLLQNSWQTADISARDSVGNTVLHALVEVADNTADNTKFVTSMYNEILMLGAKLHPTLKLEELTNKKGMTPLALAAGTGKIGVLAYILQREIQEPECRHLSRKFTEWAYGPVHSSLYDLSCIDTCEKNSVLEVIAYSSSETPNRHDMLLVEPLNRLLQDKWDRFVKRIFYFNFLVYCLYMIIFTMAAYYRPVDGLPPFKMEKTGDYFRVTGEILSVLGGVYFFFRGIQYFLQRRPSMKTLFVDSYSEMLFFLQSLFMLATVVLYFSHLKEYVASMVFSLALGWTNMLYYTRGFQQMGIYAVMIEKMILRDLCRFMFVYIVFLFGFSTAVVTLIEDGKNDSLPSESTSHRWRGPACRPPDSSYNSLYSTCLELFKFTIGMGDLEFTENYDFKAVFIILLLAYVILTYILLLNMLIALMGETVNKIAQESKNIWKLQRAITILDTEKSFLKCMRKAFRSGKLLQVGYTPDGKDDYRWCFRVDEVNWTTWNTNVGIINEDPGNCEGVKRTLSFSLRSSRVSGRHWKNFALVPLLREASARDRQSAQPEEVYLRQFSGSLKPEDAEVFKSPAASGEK

| IC50 [1] | Structure (SMILES) | further results |
| --- | --- | --- |
| 0.1 to 1 mM | CC(C)=CCC/C(C)=C/C(O)(C(F)(F)F)C(F)(F)F [NQ 3067, (E)-1,1,1-trifluoro-4,8-dimethyl-2-(trifluoromethyl)nona-3,7-dien-2-ol] |  |
| 0.1 to 1 mM | CC(C)=CCC/C(C)=C/C(N)CCCO (centres unmarked) [NQ 3084, (E)-4-amino-6,10-dimethylundeca-5,9-dien-1-ol] |  |
| 1 to 5 mM | CC(C)=CCC/C(C)=C/CS(C)(=O)=O [NQ 3053, (E)-3,7-dimethyl-1-(methylsulfonyl)octa-2,6-diene] |  |
| 0.1 to 1 mM | CC(C)=CCC/C(C)=C/C(O)C(F)(F)F (centres unmarked) [NQ 3065, (E)-1,1,1-trifluoro-4,8-dimethylnona-3,7-dien-2-ol] |  |
| 1 to 5 mM | CC(C)=CCC/C(C)=C/CNC(=O)c1ccccc1 [NQ 2982, (E)-N-(3,7-dimethylocta-2,6-dienyl)benzamide] | EC50 [2]: 0.103 mM |
| 1 to 5 mM | CC(C)=CCC/C(C)=C/[S+](C)[O-] (centres unmarked) [NQ 3057, (E)-2,6-dimethyl-1-(methylsulfinyl)hepta-1,5-diene] |  |
| > 10 mM | CC(C)=CCCC(C)=CC(=O)O [NQ 2978, 3,7-dimethyloct-2,6-dienoic acid] | EC50 [2]: 0.0711 mM |
| 1 to 5 mM | CC(C)=CCC/C(C)=C/C(=O)O [NQ 2984, (E)-3,7-dimethylocta-2,6-dienoic acid] | EC50 [2]: > 0.2 mM |
| 0.1 to 1 mM | CC(C)=CCC/C(C)=C/C(=O)N(C)O [NQ 3055, (E)-N-hydroxy-N,3,7-trimethylocta-2,6-dienamide] |  |
| 1 to 5 mM | CNC(=O)/C=C(\C)CCC=C(C)C [NQ 2991, (E)-N,3,7-trimethylocta-2,6-dienamide] |  |
| 1 to 5 mM | CC(C)=CCC/C(C)=C/CNC(=O)c1ccccc1O [NQ 2987, (E)-N-(3,7-dimethylocta-2,6-dienyl)-2-hydroxybenzamide] | EC50 [2]: 0.134 mM |
| 1 to 5 mM | CC(C)=CCC/C(C)=C\[S+](C)[O-] (centres unmarked) [NQ 3062, (Z)-2,6-dimethyl-1-(methylsulfinyl)hepta-1,5-diene] |  |
| > 10 mM | CC(C)=CCC/C(C)=C\C(=O)O [NQ 3001, (Z)-3,7-dimethylocta-2,6-dienoic acid] |  |
| < 0.1 mM | CC(C)=CCC/C(C)=C/C(N)C(C)C (centres unmarked) [NQ 3082, (E)-2,5,9-trimethyldeca-4,8-dien-3-amine] |  |
| 1 to 5 mM | CC(C)=CCCC(C)=Cc1nn[nH]n1 [NQ 3045, 5-(2,6-dimethylhepta-1,5-dien-1-yl)-2H-tetrazole] |  |
| 1 to 5 mM | CC(C)=CCC/C(C)=C/S(C)(=O)=O [NQ 3047, (E)-2,6-dimethyl-1-(methylsulfonyl)hepta-1,5-diene] |  |
| 1 to 5 mM | CNS(=O)(=O)/C=C(\C)CCC=C(C)C [NQ 3060, (E)-N,2,6-trimethylhepta-1,5-diene-1-sulfonamide] |  |
| 0.1 to 1 mM | CNS(=O)(=O)/C=C(/C)CCC=C(C)C [NQ 3061, (Z)-N,2,6-trimethylhepta-1,5-diene-1-sulfonamide] |  |
| 1 to 5 mM | CC(C)=CCC/C(C)=C/CN(C)C [NQ 2990, (E)-N,N,3,7-tetramethylocta-2,6-dien-1-amine] |  |
| 1 to 5 mM | CC(C)=CCC/C(C)=C/C(=O)N(C)C [NQ 2988, (E)-N,N,3,7-tetramethylocta-2,6-dienamide] |  |
| 1 to 5 mM | CC(C)=CCC/C(C)=C/C(=O)C(F)(F)F [NQ 3066, (E)-1,1,1-trifluoro-4,8-dimethylnona-3,7-dien-2-one] |  |
| 0.1 to 1 mM | CC(C)=CCC/C(C)=C\S(=O)(=O)NCC(F)(F)F [NQ 3069, (Z)-2,6-dimethyl-N-(2,2,2-trifluoroethyl)hepta-1,5-diene-1-sulfonamide] |  |

| IC50 [1] | Structure (SMILES) | further results |
| --- | --- | --- |
| 0.1 to 1 mM | CC(C)=CCC/C(C)=C/C(C)N (centres unmarked) [NQ 3079, (E)-4,8-dimethylnona-3,7-dien-2-amine] |  |
| < 0.1 mM | CCCC(N)/C=C(\C)CCC=C(C)C (centres unmarked) [NQ 3081, (E)-6,10-dimethylundeca-5,9-dien-4-amine] |  |
| 1 to 5 mM | CC(C)=CCC/C(C)=C/COCc1ccccc1 [NQ 2977, (E)-((3,7-dimethylocta-2,6-dienyloxy)methyl)benzene] |  |
| 1 to 5 mM | CC(C)=CCC/C(C)=C/C(O)C(C)C (centres unmarked) [NQ 3083, (E)-2,5,9-trimethyldeca-4,8-dien-3-ol] |  |
| 0.1 to 1 mM | CON(C)C(=O)/C=C(\C)CCC=C(C)C [NQ 3052, (E)-N-methoxy-N,3,7-trimethylocta-2,6-dienamide] |  |
| 1 to 5 mM | CC(C)=CCC/C(C)=C/S(N)(=O)=O [NQ 3063, (E)-2,6-dimethylhepta-1,5-diene-1-sulfonamide] |  |
| 1 to 5 mM | COC/C=C(\C)CCC=C(C)C [NQ 2976, (E)-1-methoxy-3,7-dimethylocta-2,6-diene] | EC50 [2]: 0.874 mM |
| 0.1 to 1 mM | CC(C)=CCC/C(C)=C/S(=O)(=O)NCc1ccccc1 [NQ 3071, (E)-N-benzyl-2,6-dimethylhepta-1,5-diene-1-sulfonamide] |  |
| 1 to 5 mM | CC(=O)NC/C=C(\C)CCC=C(C)C [NQ 2985, (E)-N-(3,7-dimethylocta-2,6-dienyl)acetamide] | EC50 [2]: 0.264 mM |
| 1 to 5 mM | CC(C)=CCC/C(C)=C/C=O [NQ 2983, (E)-3,7-dimethylocta-2,6-dienal] | IC50 ([3]; Ca2+ imaging (Fura-2-AM) after stimulation with 1 μM capsaicin): 0.493 to 0.657 mM; IC50 ([3]; FIG. 2, Ca2+ imaging in HEK-TRPV cells): 0.493 mM; EC50 [2]: 0.113 mM |
| 5 to 10 mM | CC(C)=CCC/C(C)=C/C(=O)Nc1ccccc1 [NQ 2986, (E)-3,7-dimethyl-N-phenylocta-2,6-dienamide] | EC50 [2]: 0.449 mM |
| 0.1 to 1 mM | CC(C)=CCC/C(C)=C/C(N)=O [NQ 2992, (E)-3,7-dimethylocta-2,6-dienamide] |  |
| < 0.1 mM | CC(C)=CCC/C(C)=C/C(N)c1ccccc1 (centres unmarked) [NQ 3085, (E)-3,7-dimethyl-1-phenylocta-2,6-dien-1-amine] |  |
| 0.1 to 1 mM | CC(C)=CCC/C(C)=C/S(=O)(=O)Nc1ccccc1 [NQ 3070, (E)-2,6-dimethyl-N-phenylhepta-1,5-diene-1-sulfonamide] |  |
| 0.1 to 1 mM | CC(C)=CCC/C(C)=C/S(=O)(=O)N(C)C [NQ 3051, (E)-N,N,2,6-tetramethylhepta-1,5-diene-1-sulfonamide] |  |
| < 0.1 mM | CC(C)=CCC/C(C)=C/CN (single isomer, unassigned) [NQ 2981, (E)-3,7-dimethylocta-2,6-dien-1-amine] | EC50 [2]: 0.217 mM |
| 0.1 to 1 mM | CC(C)=CCC/C(C)=C\S(=O)(=O)N(C)C [NQ 3050, (Z)-N,N,2,6-tetramethylhepta-1,5-diene-1-sulfonamide] |  |
| 1 to 5 mM | CNC/C=C(\C)CCC=C(C)C [NQ 3007, (E)-N,3,7-trimethylocta-2,6-dien-1-amine] |  |
| 1 to 5 mM | CC(C)=CCC/C(C)=C/C[S+](C)[O-] (centres unmarked) [NQ 3054, (E)-3,7-dimethyl-1-(methylsulfinyl)octa-2,6-diene] |  |
| 5 to 10 mM | CC(C)=CCC/C(C)=C\C=O [NQ 3000, (Z)-3,7-dimethylocta-2,6-dienal] |  |
| < 0.1 mM | CCC(N)/C=C(\C)CCC=C(C)C (centres unmarked) [NQ 3078, (E)-5,9-dimethyldeca-4,8-dien-3-amine] |  |
| 1 to 5 mM | CC(C)=CCC/C(C)=C/S(=O)(=O)NCC(F)(F)F [NQ 3064, (E)-2,6-dimethyl-N-(2,2,2-trifluoroethyl)hepta-1,5-diene-1-sulfonamide] |  |

| Structure (SMILES) | IC50 [1] | further results |
| --- | --- | --- |
| CC(C)=CCC/C(C)=C/C(N)Cc1ccccc1 (centres unmarked) [NQ 3089, (E)-4,8-dimethyl-1-phenylnona-3,7-dien-2-amine] | < 0.1 mM |  |
